Values after ≈ are worked out from the molar mass of the structure shown. “Also recorded” adds a separate entry of the source.
What was measured:
[1] = water solubility by LC-MS/MS; format: physicochemical; conditions: water with 1% DMSO, kinetic from dmso stock, tested at 100 μM in 1% DMSO
[2] = system: U2OS cells; assay: Apo Tox-Glo viability assay, U2OS cells; format: cell-based, human; conditions: 5 μM, 3 days
Method: HeLa, U2OS, and MRI90 cells were cultured in the presence of ADAR1 inhibitors, 5 μM or 20 μM, for 3 days. Their viability was examined using the Apo Tox-Glo assay system (Promega), which measures plasma membrane penetration of glycyl-phenyl-alanyl-aminofluorocoumarin peptide. Control, 0.3% DMSO. […] Data are mean±S.D. (n=3, biological replicates).
FIGS. 29A-29D Characterization of Compound #13 effects in cancer cells. […] Viability was examined using the Apo Tox-Glo assay system (Promega). Control, 0.3% DMSO. (FIG. 29B) Western blotting analysis of HeLa cells treated with Compound #13 (10 μM). […] (FIG. 29D) Activation of the IFN signaling pathway. HSC-4 squamous carcinoma cells were treated with Compound #13 at 10 μM (12 hrs). RNA samples were analyzed by qRT-PCR to monitor expression levels of ISGs.

[3] = molecular target: T1, ADAR1p110-E912A (Homo sapiens, UniProt P55265, E912A); assay: surface plasmon resonance (Biacore T200), ADAR1p110-E912A; format: binding; conditions: SPR
T1 sequence (P55265 1-931 isoform P55265-5 E617A): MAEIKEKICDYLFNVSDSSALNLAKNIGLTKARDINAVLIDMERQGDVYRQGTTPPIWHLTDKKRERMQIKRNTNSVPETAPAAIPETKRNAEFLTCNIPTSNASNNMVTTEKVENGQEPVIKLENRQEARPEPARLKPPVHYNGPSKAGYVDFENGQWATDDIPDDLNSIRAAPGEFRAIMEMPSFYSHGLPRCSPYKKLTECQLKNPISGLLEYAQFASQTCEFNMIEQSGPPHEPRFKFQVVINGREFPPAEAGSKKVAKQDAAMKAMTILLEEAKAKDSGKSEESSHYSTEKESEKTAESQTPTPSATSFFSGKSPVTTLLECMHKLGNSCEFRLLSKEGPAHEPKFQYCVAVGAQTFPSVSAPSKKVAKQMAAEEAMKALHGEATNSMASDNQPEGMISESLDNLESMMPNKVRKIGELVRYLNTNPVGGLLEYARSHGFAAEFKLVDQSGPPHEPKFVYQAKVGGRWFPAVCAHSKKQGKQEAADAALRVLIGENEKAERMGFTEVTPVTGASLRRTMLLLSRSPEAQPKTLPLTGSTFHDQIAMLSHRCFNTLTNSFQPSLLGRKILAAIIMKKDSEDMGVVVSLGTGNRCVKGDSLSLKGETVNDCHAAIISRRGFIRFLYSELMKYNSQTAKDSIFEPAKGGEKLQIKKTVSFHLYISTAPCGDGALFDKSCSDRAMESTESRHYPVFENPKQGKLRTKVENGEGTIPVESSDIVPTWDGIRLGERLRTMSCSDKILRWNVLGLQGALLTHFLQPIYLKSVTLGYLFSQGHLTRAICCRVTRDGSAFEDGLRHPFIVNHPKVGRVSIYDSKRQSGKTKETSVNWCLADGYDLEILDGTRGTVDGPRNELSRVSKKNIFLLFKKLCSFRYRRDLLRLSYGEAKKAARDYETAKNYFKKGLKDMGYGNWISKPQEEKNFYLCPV
Source text: We synthesized 2 additional analogs of Compound #13 for preliminary structure activity relationships (SAR), namely, #13-Analog 1 and #13-Analog 2 (Table 3). Compound #13-Analog 1 lacks the 4-cyano moiety and #13-Analog 2 shifts the cyano to the 2-position of the phenyl ring. […] We hypothesized that the cyano-phenyl moiety will coordinate with the zinc atom in the active site when bound to ADAR1. We evaluated the ability of Compound #13 to bind to ADAR1 using surface plasmon resonance (SPR) on the Biacore T200. […] We modeled Compound #13 into the ADAR2 active site (56).

- solubility [1]: 0.59 µM (≈ 0.185 µg/mL)
SMILES: N#Cc1ccc(NC(=O)c2sc3ccccc3c2Cl)cc1 [Compound #13, 3-chloro-N-(4-cyanophenyl)-1-benzothiophene-2-carboxamide]
- viability of U2OS (ALT) cells [2]: very little effects
- binding to mutant ADAR1p110-E912A [3]: did not bind; also recorded: not to mutant E912A

— US20250066864A1, “METHODS FOR IDENTIFYING ADAR1 INHIBITORS, AND COMPOSITIONS AND METHODS OF USE IN TREATING CANCER” (The Wistar Institute of Anatomy and Biology, priority 2021, published 2025)
